Like-named read-outs stand apart in the source and are kept apart here.
What was measured:
[1] = target: T1, plurality of kinases (Table 5) (Homo sapiens, UniProt O14965); experiment: Further analysis of a plurality of inhibitors and a plurality of kinases on microarray (Example IX, Table 5); type: biochemical; settings: plate C6;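 also: inhibition of each kinase by the inhibitors is given as a qualitative level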;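 as to Inhibition level, CAMK2D: level 0 none or unclear then 1 little or marginal then 2 substantial inhibition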;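 as to Inhibition level, CDKL3: level 0 no or unclear inhibition to Level 2 substantial inhibition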;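 as to Inhibition level, FYN: level 0 no or unclear inhibition to Level 2 substantial inhibition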;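 as to Inhibition level, PRKCI: level 0 none or unclear Level 1 marginal Level 2 substantial inhibition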;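 as to Inhibition level, STK6: level 0 no or unclear inhibition to Level 2 substantial inhibition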
T1 sequence (O14965 1-403): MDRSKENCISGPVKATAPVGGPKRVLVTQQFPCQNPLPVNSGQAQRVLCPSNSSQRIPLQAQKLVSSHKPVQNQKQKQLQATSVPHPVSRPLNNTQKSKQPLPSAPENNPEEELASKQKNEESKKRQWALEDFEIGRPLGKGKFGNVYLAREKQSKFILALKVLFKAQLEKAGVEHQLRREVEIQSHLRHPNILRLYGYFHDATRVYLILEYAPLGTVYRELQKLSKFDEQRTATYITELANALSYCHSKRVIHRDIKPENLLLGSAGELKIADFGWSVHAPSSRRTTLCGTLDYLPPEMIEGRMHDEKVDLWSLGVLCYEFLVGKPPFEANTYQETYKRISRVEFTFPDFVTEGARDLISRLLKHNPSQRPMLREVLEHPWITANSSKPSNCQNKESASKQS

[2] = target: plurality of kinases (Table 5) (Homo sapiens, UniProt P06241); experiment: as above; type: biochemical
Chain of plurality of kinases (Table 5) (Homo sapiens, UniProt P06241) (P06241 whole entry): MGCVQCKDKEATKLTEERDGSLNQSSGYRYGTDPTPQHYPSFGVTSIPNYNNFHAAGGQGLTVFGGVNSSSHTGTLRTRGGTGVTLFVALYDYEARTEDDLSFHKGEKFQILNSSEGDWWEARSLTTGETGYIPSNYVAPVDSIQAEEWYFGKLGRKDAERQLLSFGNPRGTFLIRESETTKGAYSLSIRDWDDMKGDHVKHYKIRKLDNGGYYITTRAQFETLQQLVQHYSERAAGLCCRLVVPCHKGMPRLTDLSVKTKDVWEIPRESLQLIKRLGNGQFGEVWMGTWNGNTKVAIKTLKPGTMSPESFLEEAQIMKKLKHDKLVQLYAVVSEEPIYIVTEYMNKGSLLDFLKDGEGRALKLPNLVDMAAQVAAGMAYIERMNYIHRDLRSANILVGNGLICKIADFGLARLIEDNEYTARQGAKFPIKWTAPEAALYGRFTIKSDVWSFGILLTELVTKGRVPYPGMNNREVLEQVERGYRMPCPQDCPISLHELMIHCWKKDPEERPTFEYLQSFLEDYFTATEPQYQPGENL

[3] = target: T2, plurality of kinases (Table 5) (Homo sapiens, UniProt P41743); experiment: as above; type: biochemical; settings: plate A2
T2 sequence (P41743 1-596): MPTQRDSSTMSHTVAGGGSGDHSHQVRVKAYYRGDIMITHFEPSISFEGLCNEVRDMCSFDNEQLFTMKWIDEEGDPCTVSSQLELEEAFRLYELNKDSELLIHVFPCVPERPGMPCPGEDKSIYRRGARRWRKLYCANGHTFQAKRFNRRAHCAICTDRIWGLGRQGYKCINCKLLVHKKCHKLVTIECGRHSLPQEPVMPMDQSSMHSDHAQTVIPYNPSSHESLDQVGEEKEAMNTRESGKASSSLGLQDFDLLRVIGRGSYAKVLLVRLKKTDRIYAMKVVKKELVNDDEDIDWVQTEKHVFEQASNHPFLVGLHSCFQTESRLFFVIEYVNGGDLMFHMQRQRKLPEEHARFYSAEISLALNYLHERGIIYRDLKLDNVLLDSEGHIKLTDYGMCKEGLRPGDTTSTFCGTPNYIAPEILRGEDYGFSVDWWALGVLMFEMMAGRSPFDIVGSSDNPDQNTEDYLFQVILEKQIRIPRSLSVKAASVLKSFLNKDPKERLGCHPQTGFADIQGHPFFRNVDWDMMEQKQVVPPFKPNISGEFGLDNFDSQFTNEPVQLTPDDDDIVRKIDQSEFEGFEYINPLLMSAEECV

[4] = target: plurality of kinases (Table 5) (Homo sapiens, UniProt Q13557); experiment: as above; type: biochemical; settings: plate B1; inhibitor 100 uM
Chain of plurality of kinases (Table 5) (Homo sapiens, UniProt Q13557) (Q13557 whole entry): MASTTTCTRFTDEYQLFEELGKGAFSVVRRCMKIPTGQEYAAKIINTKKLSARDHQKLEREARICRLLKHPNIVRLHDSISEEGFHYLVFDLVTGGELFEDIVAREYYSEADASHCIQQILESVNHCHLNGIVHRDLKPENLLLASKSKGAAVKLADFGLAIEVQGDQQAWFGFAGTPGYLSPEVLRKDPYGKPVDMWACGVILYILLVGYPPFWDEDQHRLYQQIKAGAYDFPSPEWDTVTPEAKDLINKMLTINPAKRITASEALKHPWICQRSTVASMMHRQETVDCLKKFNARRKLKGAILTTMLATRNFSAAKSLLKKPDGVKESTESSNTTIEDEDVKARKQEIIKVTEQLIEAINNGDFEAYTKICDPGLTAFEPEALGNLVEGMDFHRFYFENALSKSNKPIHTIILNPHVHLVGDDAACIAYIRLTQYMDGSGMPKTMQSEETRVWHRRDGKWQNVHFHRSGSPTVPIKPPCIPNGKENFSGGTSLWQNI

[5] = target: plurality of kinases (Table 5) (Homo sapiens, UniProt Q8IVW4); experiment: as above; type: biochemical; settings: plate F12; inhibitor 100 uM
Chain of plurality of kinases (Table 5) (Homo sapiens, UniProt Q8IVW4) (Q8IVW4 whole entry): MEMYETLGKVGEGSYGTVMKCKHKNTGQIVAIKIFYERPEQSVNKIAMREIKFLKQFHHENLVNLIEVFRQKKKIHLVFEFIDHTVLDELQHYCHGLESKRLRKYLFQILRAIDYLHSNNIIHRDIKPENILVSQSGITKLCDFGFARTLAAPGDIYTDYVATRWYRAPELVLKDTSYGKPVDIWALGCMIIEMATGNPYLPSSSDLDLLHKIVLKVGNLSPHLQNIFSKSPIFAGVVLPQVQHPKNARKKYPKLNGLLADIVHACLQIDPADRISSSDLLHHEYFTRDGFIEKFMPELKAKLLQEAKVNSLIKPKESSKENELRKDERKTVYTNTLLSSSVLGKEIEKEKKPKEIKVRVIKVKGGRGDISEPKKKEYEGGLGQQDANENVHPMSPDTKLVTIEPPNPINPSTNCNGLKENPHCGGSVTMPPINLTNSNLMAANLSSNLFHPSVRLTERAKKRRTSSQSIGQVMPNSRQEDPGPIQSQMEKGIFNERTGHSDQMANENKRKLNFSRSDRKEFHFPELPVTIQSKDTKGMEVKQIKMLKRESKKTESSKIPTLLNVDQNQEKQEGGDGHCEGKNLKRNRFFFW

39 kinases (Table 4) [6] = settings: known general specificities of the inhibitors, Table 3; cited from earlier work
39 kinases (Table 4) [7] = experiment: Global specificity profiling, single point inhibition on kinase microarrays (Example VII); type: biochemical; settings: substrates histone, casein, MBP, polyEY, control 2% DMSO
Method: (§1) To assess the application of microarray assays for compound profiling, seven known inhibitors (see Table of inhibitors used in global specificity profiling experiment) and one control (2% DMSO) were tested on microarrays printed with a group of kinases (as well as positive and negative controls). […] Twelve spots of each kinase or control were printed on each array, and three arrays were used for each inhibitor. A mixture of generic kinase substrates (histone, casein, MBP, and polyEY) was used in the assay. The average of all signals from the same inhibitor or control experiment was calculated.
(§2) To expedite data analysis regarding the kinase families that are inhibited by a particular […], a graphical representation can be constructed of inhibition data for substrates in such a manner that phylogenetically related kinases can be spatially arranged on the graphical representation.

EPHB3 = EPHB3 (Homo sapiens, UniProt P54753); experiment: Dose-response analysis on 10-well kinase microarray (Example III, FIG. 4); type: biochemical; settings: different inhibitor concentration in each well; substrate MBP, histone, casein
Chain of EPHB3 (P54753 34-998): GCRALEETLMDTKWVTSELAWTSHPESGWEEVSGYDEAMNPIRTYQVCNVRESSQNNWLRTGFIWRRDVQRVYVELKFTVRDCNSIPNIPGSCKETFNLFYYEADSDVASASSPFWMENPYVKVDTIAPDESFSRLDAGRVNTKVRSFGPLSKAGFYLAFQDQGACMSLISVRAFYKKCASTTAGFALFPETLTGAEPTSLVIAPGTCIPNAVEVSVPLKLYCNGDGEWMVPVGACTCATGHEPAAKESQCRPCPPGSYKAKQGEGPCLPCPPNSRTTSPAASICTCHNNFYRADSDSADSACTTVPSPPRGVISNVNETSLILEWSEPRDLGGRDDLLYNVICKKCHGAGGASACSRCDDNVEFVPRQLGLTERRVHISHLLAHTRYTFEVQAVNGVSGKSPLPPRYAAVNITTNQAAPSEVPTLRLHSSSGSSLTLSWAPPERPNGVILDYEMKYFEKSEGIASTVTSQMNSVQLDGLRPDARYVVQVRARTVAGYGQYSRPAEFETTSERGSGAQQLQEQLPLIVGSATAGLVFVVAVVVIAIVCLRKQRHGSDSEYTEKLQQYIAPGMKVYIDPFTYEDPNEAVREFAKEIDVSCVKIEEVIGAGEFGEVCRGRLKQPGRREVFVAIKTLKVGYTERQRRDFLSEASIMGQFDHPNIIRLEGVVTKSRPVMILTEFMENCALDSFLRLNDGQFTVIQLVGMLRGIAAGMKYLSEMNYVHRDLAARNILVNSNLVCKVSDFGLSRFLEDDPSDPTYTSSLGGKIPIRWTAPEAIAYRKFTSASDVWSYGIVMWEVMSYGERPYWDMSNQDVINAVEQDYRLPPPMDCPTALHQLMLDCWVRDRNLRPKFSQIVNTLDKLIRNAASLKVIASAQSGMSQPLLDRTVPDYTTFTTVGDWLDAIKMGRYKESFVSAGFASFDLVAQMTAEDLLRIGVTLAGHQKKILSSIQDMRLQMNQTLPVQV
Method: (§3) Microarrays were prepared with 10 wells/slide, wherein the kinases EPHB3, FYN, and PRKCD and their substrate were immobilized in each well. The slide was coated with substrate essentially as described in section 6.1. Subsequently, a gasket with 10 openings was applied to the surface of the slide thereby creating 10 wells, i.e., the gasket provides the barriers between the wells. The accession numbers for the different kinases in the NCBI database are: for FYN: NM_002037; for PRKCD: NM_006254; and for EPHB3: NM_004443.

PRKCD = PRKCD (Homo sapiens, UniProt Q05655); experiment: as above; type: biochemical; settings: different inhibitor concentration in each well; substrate MBP, histone, casein
Chain of PRKCD (Q05655 whole entry): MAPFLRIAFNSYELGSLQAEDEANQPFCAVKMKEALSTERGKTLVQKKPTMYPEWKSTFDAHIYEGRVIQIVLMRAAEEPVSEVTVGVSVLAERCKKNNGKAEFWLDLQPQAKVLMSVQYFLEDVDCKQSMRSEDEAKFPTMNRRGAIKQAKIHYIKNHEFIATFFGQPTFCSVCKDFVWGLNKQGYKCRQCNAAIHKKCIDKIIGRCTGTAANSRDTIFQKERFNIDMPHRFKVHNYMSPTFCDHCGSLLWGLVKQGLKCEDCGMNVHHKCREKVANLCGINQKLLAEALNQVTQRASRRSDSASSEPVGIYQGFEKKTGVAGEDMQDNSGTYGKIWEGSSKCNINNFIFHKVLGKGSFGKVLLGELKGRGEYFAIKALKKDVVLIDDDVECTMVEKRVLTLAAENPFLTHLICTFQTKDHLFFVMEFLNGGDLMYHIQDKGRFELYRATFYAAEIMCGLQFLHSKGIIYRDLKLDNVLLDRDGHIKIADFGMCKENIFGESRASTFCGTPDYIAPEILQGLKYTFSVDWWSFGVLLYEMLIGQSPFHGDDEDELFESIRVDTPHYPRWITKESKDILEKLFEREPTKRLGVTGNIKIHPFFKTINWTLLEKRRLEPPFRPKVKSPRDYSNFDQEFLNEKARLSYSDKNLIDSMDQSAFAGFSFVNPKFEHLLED
Method: as §3, with “wells.” for “wells. The accession numbers for the different kinases in the NCBI database are: for FYN: NM_002037; for PRKCD: NM_006254; and for EPHB3: NM_004443.”

[8] = system: 50 different human kinases; experiment: Inhibitor specificity profiling on kinase microarray (Example II, FIG. 3); settings: 100 μm inhibitor; substrate mixture of MBP, histone and casein; versus control without inhibitor
Method: 1 mL of kinase assay buffer for every 12 glass slides to be probed is prepared. 6 μL of gamma-AT^33P (10 μCi/μL) are added to the assay buffer. The slides are placed in 50 mL conical tubes, laying flat, proteins facing up. 70 μL to 150 μL of the kinase assay buffer with gamma-AT^33P are added onto each slide. Using tweezers, the slide is covered with a hybridization slip, making sure that the solution completely covers the microarray. The conical tube is then closed and placed in a 30° C. incubator. Care should be taken that the slide is laying flat. The reaction is then incubated for 90 minutes. Subsequently, the tubes are removed from the incubator. Approximately 40 mL of dH2O are added to each tube and, using the tweezers, the hybridization slip is removed, the tube is closed and inverted several times for 1-2 minutes to rinse the slide inside the conical tube. The wash solution is then discarded. Approximately 40 mL of dH2O are added again to each tube, the tubes are closed and inverted several times for 1-2 minutes, the wash solution is discarded. The slides are then removed from the tubes and place in a slide box and centrifuged at 4000 rpm for 1-2 minutes.
A phosphor screen (suitable for ^33P) is re-activated for each membrane by exposing it to light for at least 30 minutes. […]

FYN [9] = target: T3, FYN (Homo sapiens, UniProt P06241); experiment: Dose-response analysis on 10-well kinase microarray (Example III, FIG. 4); type: biochemical; settings: different inhibitor concentration in each well; substrate MBP, histone, casein
T3 sequence (P06241 whole entry): as the sequence (P06241 whole entry) above
Method: as §3, with “wells.” for “wells. The accession numbers for the different kinases in the NCBI database are: for FYN: NM_002037; for PRKCD: NM_006254; and for EPHB3: NM_004443.”

FYN [10] = target: T3, FYN; experiment: Global specificity profiling, single point inhibition on kinase microarrays (Example VII); type: biochemical; settings: substrates histone, casein, MBP, polyEY
Method: as §1, §2

[11] = plate A4, Domain 0, inhibitor 100 uM

| SMILES | Inhibition level, STK6 ([1]; inhibitor 100 uM) | Inhibition level, FYN [2, 11] | Inhibition level, PRKCI ([3]; inhibitor 100 uM) | Inhibition level, CDKL3 [5] | General Specificity (known) (39 kinases (Table 4) [6]) | other results |
| --- | --- | --- | --- | --- | --- | --- |
| O=S(=O)(NCCNC/C=C/c1ccc(Br)cc1)c1cccc2cnccc12 [H-89] | 0 | 2 | 2 | 1 | serine/threonine | Inhibition level, CAMK2D [4]: 0 |
| Cn1cc(C2=C(c3cn(CCCSC(=N)N)c4ccccc34)C(=O)NC2=O)c2ccccc21 [Ro-31-8220] | 2 | 2 | 0 | 2 | serine/threonine | observed specificity (percentage-of-inhibition data for 39 kinases) (39 kinases (Table 4) [7]): more specifically targeted the serine-threonine kinases; Inhibition level, STK6 ([1]; Ro-31-8220 90 uM): 0; Inhibition level, FYN ([2]; plate A4, Domain 0, Ro-31-8220 90 uM): 0; Inhibition level, PRKCI ([3]; Ro-31-8220 90 uM): 2 |
| CC(=O)c1c(O)c(C)c(O)c(Cc2c(O)c3c(c(C(=O)/C=C/c4ccccc4)c2O)OC(C)(C)C=C3)c1O [Rottlerin (Mallotoxin)] | 2 | 2 | 2 | 1 | – | Inhibition level, CAMK2D [4]: 2 |
| CC(C)(C)n1nc(-c2ccc(Cl)cc2)c2c(N)ncnc21 [PP2] | 2 | – | 1 | 2 | tyrosine | inhibition of EPHB3 (dose-response curve) (EPHB3): strongly inhibits; inhibition of PRKCD (dose-response curve) (PRKCD): but not the serine/threonine kinase PRKCD; observed specificity (percentage-of-inhibition data for 39 kinases) (39 kinases (Table 4) [7]): primarily inhibited tyrosine kinases; inhibition of tyrosine kinases [8]: strongly inhibited |
| COc1cc2ncnc(Nc3cccc(Cl)c3)c2cc1OC [AG 1478] | 0 | 2 | 0 | 1 | – | – |
| N#C/C(=C/c1ccc(O)c(O)c1)C(=O)NCc1ccccc1 [AG 490] | 2 | 2 | 2 | 2 | tyrosine | – |
| CN[C@@H]1C[C@H]2O[C@@](C)([C@@H]1OC)n1c3ccccc3c3c4c(c5c6ccccc6n2c5c31)C(=O)NC4 [Staurosporine] | – | – | – | – | broad | inhibition of FYN (dose-response curve) (FYN [9]): strongly inhibits; inhibition of FYN in global specificity profiling (FYN [10]): inhibited; Inhibition level, STK6 ([1]; Staurosporine 21.5 uM): 0; Inhibition level, FYN [2]: 2 |
| O=c1c(O)c(-c2ccc(O)c(O)c2)oc2cc(O)cc(O)c12 [Quercetin] | – | – | 0 | 0 | – | – |
| O=c1c(-c2ccc(O)cc2)coc2cc(O)cc(O)c12 [Genistein] | 2 | 2 | 2 | 0 | tyrosine | Inhibition level, STK6 ([1]; Genistein <3.7 mM): 0; Inhibition level, FYN ([2]; plate A4, Domain 0, Genistein <3.7 mM): 1; Inhibition level, PRKCI ([3]; Genistein <3.7 mM): 0 |
